Molecular target: T1, HPK1 (Homo sapiens, UniProt Q92918)
T1 construct: A HiBiT tag was introduced by CRISPR on the N terminus of HPK1 in Jurkat cells; host or cells: Jurkat cells (ATCC TIB-152), monoclonal line with CRISPR knock-in of HiBiT at the endogenous HPK1 locus
Assay: HPK1 Cellular HiBit Degradation Assay
Assay type: cell-based
Settings: HiBiT HPK1 Jurkat cells, 24 hrs; for DC50: concentration at which 50% of HPK1 was remaining, read-out: DC50 Category; for Dmax: Jurkat, read-out: Dmax Category
Method: HPK1 Cellular HiBit Degradation Assay
A HiBiT tag was introduced by CRISPR on the N terminus of HPK1 in Jurkat cells (ATCC® TIB-152) to allow quantitation of HPK1 protein levels in a monoclonal human cell line. Cells were plated at 1×10^6 cells/mL, 30 uL/well (3×10^4 cells/well) in complete RPMI 1640 (10% heat inactivated FBS, 1% L-glutamine) in 384-well assay plates (Corning, cat. no. 3570). HPK1 chimeric targeting molecules (CTMs) were added in an 11 point dilution series (11-point, 3.16-fold) with a final assay concentration range of 10 uM to 0.1 nM. The parental Jurkat cell line, with no HiBiT insertion, was included in the assay as a background control. Cell treated with a DMSO vehicle control was used to determine the maximum signal defining 100% HPK1 in the cell. Cells were incubated for 24 hrs at 37° C./5% CO2. Following incubation, 30 uL of complete Nano-Glo HiBiT Lytic Detection Reagent (Promega cat. no. N3040) was added. Cells were incubated for 10 min at room temperature and luminescence was read on an EnVision plate reader (Perkin Elmer, 0.1 sec per well). Viability was assessed in the same plate using Cell Titer Fluor (Promega) and read on an EnVision plate reader to ensure results were not the effect of cytotoxicity. Percent HPK1 remaining per sample was calculated as follows:
[formula] % HPK1 remaining values were plotted as a function of compound concentration and curves were fit using the Prism (GraphPad) equation “log(inhibitor) vs response−Variable slope (four parameters)”. Dmax values were calculated by identifying the lowest % remaining and subtracting from 100. DC50 values were determined by extrapolating from the curve the concentration at which 50% of HPK1 was remaining based on the DMSO control.
HiBiT HPK1 Jurkat cell lines were used to evaluate the total protein levels of HPK1 in a robust human cellular high throughput format. The level of HPK1 remaining following treatment with HPK1 CTMs is reported as Dmax (maximum degradation) achieved at 24 hours when compared to vehicle treated controls. […] These decreases were not a result of cytotoxicity measured by a viability assessment.

[1] = maximum degradation vs DMSO vehicle control

T1 sequence (Q92918 whole entry): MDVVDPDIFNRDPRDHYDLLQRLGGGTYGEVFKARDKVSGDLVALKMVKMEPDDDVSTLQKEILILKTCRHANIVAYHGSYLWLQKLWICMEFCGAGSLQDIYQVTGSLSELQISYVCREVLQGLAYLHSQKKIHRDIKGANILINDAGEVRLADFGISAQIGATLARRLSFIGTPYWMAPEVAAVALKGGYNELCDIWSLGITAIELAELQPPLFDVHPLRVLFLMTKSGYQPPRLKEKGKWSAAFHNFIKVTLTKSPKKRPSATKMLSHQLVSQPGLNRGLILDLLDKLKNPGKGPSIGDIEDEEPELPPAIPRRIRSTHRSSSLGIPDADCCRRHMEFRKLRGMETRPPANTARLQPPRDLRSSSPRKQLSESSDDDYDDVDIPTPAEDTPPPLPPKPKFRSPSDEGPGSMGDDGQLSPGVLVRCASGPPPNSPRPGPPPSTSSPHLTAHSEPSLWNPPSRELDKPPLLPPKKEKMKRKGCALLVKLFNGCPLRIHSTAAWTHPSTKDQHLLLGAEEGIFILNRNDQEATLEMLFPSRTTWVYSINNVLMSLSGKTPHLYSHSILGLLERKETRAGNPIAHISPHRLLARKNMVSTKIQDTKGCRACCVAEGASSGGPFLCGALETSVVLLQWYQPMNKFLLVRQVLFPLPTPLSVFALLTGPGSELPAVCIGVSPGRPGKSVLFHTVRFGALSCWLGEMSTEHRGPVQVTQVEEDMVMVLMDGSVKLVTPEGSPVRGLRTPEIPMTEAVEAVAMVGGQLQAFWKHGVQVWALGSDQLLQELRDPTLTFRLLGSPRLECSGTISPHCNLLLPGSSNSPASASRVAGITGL

DC50 [µM]	Dmax [1] [%]	Compound	Dmax Category [1]
0.1 to 0.5	70 to 85	Cc1cc(C(=O)N2CCN(c3ccc4c(c3)C(=O)N(C3CCC(=O)NC3=O)C4=O)CC2)ccc1C(=O)N1CCC2(CC1)C(=O)N([C@H]1C[C@@H](N3CCCCC3)C1)c1cc(-c3cc4ncn(C(C)C)c4c(Nc4ccccc4F)n3)ccc12 (mixture of isomers) [Example 124, 2-[(3RS)-2,6-dioxopiperidin-3-yl]-5-(4-{4-[(6-{4-[(2-fluorophenyl)amino]-3-(propan-2-yl)-3H-imidazo[4,5-c]pyridin-6-yl}-2-oxo-1-[(1S,3S)-3-(piperidin-1-yl)cyclobutyl]-1,2-dihydrospiro[indole-3,4′-piperidin]-1′-yl)carbonyl]-3-methylbenzoyl}piperazin-1-yl)-2,3-dihydro-1H-isoindole-1,3-dione]	
< 0.1	70 to 85	CC(C)n1cnc2cc(-c3ccc4c(c3)N([C@H]3C[C@@H](N5CCCCC5)C3)C(=O)C43CCN(C(=O)C4(C)CCN(C(=O)[C@H]5CC[C@H](Oc6ccc(C7CCC(=O)NC7=O)cc6)CC5)CC4)CC3)nc(NC3CC3)c21 (mixture of isomers) [Example 101, (3RS)-3-(4-{[(1R,4R)-4-[4-({6-[4-(cyclopropylamino)-3-(propan-2-yl)-3H-imidazo[4,5-c]pyridin-6-yl]-2-oxo-1-[(1S,3S)-3-(piperidin-1-yl)cyclobutyl]-1,2-dihydrospiro[indole-3,4′-piperidin]-1′-yl}carbonyl)-4-methylpiperidine-1-carbonyl]cyclohexyl]oxy}phenyl)piperidine-2,6-dione]	
0.1 to 0.5	> 85	CC(C)n1cnc2cc(-c3ccc4c(c3)N([C@H]3C[C@@H](N5CCCCC5)C3)C(=O)C43CCN(C(=O)C4(C(F)(F)F)CCN(C(=O)C5CCN(c6ccc(C7CCC(=O)NC7=O)cn6)CC5)CC4)CC3)nc(NC3CC3)c21 (mixture of isomers) [Example 275, (3RS)-3-(6-{4-[4-({6-[4-(cyclopropylamino)-3-(propan-2-yl)-3H-imidazo[4,5-c]pyridin-6-yl]-2-oxo-1-[(1S,3S)-3-(piperidin-1-yl)cyclobutyl]-1,2-dihydrospiro[indole-3,4′-piperidin]-1′-yl}carbonyl)-4-(trifluoromethyl)piperidine-1-carbonyl]piperidin-1-yl}pyridin-3-yl)piperidine-2,6-dione]	
0.1 to 0.5	50 to 70	CC(C)n1cnc2cc(-c3ccc4c(c3)N([C@H]3C[C@@H](N5CCC[C@@H](F)C5)C3)C(=O)C43CCN(C(=O)C4(C)CCN(C(=O)C5CCN(c6ccc(C7CCC(=O)NC7=O)cc6)CC5)CC4)CC3)nc(NC3CC3)c21 (mixture of isomers) [Example 199, (3RS)-3-(4-{4-[4-({6-[4-(cyclopropylamino)-3-(propan-2-yl)-3H-imidazo[4,5-c]pyridin-6-yl]-2-oxo-1-[(1S,3S)-3-[(3R)-3-fluoropiperidin-1-yl]cyclobutyl]-1,2-dihydrospiro[indole-3,4′-piperidin]-1′-yl}carbonyl)-4-methylpiperidine-1-carbonyl]piperidin-1-yl}phenyl)piperidine-2,6-dione]	
0.5 to 1	70 to 85	CC(C)n1cnc2cc(-c3ccc4c(c3)N([C@H]3C[C@@H](N5CCCCC5)C3)C(=O)C43CCN(C(=O)[C@@H]4CCN(C(=O)[C@H]5CC[C@H](Nc6cncc(C7CCC(=O)NC7=O)c6)CC5)C4)CC3)nc(Nc3ccccc3F)c21 (mixture of isomers) [Example 12, (3RS)-3-(5-{[(1R,4R)-4-[(3R)-3-[(6-{4-[(2-fluorophenyl)amino]-3-(propan-2-yl)-3H-imidazo[4,5-c]pyridin-6-yl}-2-oxo-1-[(1S,3S)-3-(piperidin-1-yl)cyclobutyl]-1,2-dihydrospiro[indole-3,4′-piperidin]-1′-yl)carbonyl]pyrrolidine-1-carbonyl]cyclohexyl]amino}pyridin-3-yl)piperidine-2,6-dione]	
< 0.1	50 to 70	CC(C)n1cnc2cc(-c3ccc4c(c3)N([C@H]3C[C@@H](N5CCCCC5)C3)C(=O)C43CCN(C(=O)C4CCN(C(=O)[C@H]5CC[C@H](Cn6cc7cc(C8CCC(=O)NC8=O)ccc7n6)CC5)CC4)CC3)nc(Nc3ccccc3F)c21 (mixture of isomers) [Example 63, (3RS)-3-(2-{[(1R,4R)-4-{4-[(6-{4-[(2-fluorophenyl)amino]-3-(propan-2-yl)-3H-imidazo[4,5-c]pyridin-6-yl}-2-oxo-1-[(1S,3S)-3-(piperidin-1-yl)cyclobutyl]-1,2-dihydrospiro[indole-3,4′-piperidin]-1′-yl)carbonyl]piperidine-1-carbonyl}cyclohexyl]methyl}-2H-indazol-5-yl)piperidine-2,6-dione]	
< 0.1	70 to 85	CC(C)n1cnc2cc(-c3ccc4c(c3)N([C@H]3C[C@@H](N5CCCCC5)C3)C(=O)C43CCN(C(=O)C4(C)CCN(C(=O)[C@H]5CC[C@H](Nc6ccc(C7CCC(=O)NC7=O)cc6)CC5)CC4)CC3)nc(NC3CC3)c21 (mixture of isomers) [Example 191, (3RS)-3-(4-{[(1R,4R)-4-[4-({6-[4-(cyclopropylamino)-3-(propan-2-yl)-3H-imidazo[4,5-c]pyridin-6-yl]-2-oxo-1-[(1S,3S)-3-(piperidin-1-yl)cyclobutyl]-1,2-dihydrospiro[indole-3,4′-piperidin]-1′-yl}carbonyl)-4-methylpiperidine-1-carbonyl]cyclohexyl]amino}phenyl)piperidine-2,6-dione]	
< 0.1	70 to 85	CC(C)n1cnc2cc(-c3ccc4c(c3)N([C@H]3C[C@@H](N5CCCCC5)C3)C(=O)C43CCN(C(=O)C4(O)CCN(C(=O)C5CCN(c6ccc(C7CCC(=O)NC7=O)cc6)CC5)CC4)CC3)nc(NC3CC3)c21 (mixture of isomers) [Example 274, (3RS)-3-(4-{4-[4-({6-[4-(cyclopropylamino)-3-(propan-2-yl)-3H-imidazo[4,5-c]pyridin-6-yl]-2-oxo-1-[(1S,3S)-3-(piperidin-1-yl)cyclobutyl]-1,2-dihydrospiro[indole-3,4′-piperidin]-1′-yl}carbonyl)-4-hydroxypiperidine-1-carbonyl]piperidin-1-yl}phenyl)piperidine-2,6-dione]	
0.1 to 0.5	70 to 85	CC(C)n1cnc2cc(-c3ccc4c(c3)N([C@H]3C[C@@H](N5CCCCC5)C3)C(=O)C43CCN(C(=O)[C@@H]4CCC[C@H](NC(=O)CC5CCN(c6ccc(C7CCC(=O)NC7=O)cn6)CC5)C4)CC3)nc(NC3CC3)c21 (mixture of isomers) [Example 292, N-[(1S,3R)-3-({6-[4-(cyclopropylamino)-3-(propan-2-yl)-3H-imidazo[4,5-c]pyridin-6-yl]-2-oxo-1-[(1s,3s)-3-(piperidin-1-yl)cyclobutyl]-1,2-dihydrospiro[indole-3,4′-piperidin]-1′-yl}carbonyl)cyclohexyl]-2-(1-{5-[(3RS)-2,6-dioxopiperidin-3-yl]pyridin-2-yl}piperidin-4-yl)acetamide]	

Compound	DC50 [µM]	Dmax [1] [%]	Dmax Category [1]
CC(C)n1cnc2cc(-c3ccc4c(c3)N(C3CC(N5CCCCC5)C3)C(=O)C43CCN(C(=O)C4CCC(C(=O)N5CCC(COc6ccc(C7CCC(=O)NC7=O)cc6)CC5)CC4)CC3)nc(NC3CC3)c21 (racemic) [Example 230, (3RS)-3-[4-({1-[(1R,4R)-4-({6-[4-(cyclopropylamino)-3-(propan-2-yl)-3H-imidazo[4,5-c]pyridin-6-yl]-2-oxo-1-[(1S,3S)-3-(piperidin-1-yl)cyclobutyl]-1,2-dihydrospiro[indole-3,4′-piperidin]-1′-yl}carbonyl)cyclohexanecarbonyl]piperidin-4-yl}methoxy)phenyl]piperidine-2,6-dione]	< 0.1		C (C: >50%-<70%)

— patent US12091426B2, “Bifunctional degraders of hematopoietic progenitor kinase and therapeutic uses thereof” (Nurix Therapeutics, Inc., priority 2021, dated 2024)
